Where two headings read alike, the source gives them in different places.
Tests used:
Type in all cases: cell-based
[1] = biological target: T1, human dopamine transporter/SLC6A3 (DAT) (Homo sapiens, UniProt Q01959); experiment: Cellular uptake experiments: [3H]-dopamine reuptake inhibition in transporter-expressing HEK293 cells; conditions: for IC50: cells stably expressing DAT, [3H]-dopamine 1 µM, screening cut-off 50 µM
T1 construct: expressed in transfected cells; host or cells: HEK293
Protocol: (§1) Cell culture. Human embryonic kidney (HEK) 293 or SK-N-MC (human neuroblastoma) cells were grown in minimum essential medium with Earle’s salts and L-glutamine, 10% heat-inactivated fetal bovine serum, and 50 mg/L gentamicin. Cells were grown in 100- or 60-mm diameter tissue culture dishes (polystyrene, Falcon) at 37 °C under an atmosphere of 5% CO2/95% air. The human dopamine transporter/SLC6A3 (DAT), noradrenaline transporter/SLC6A2 (NET), or human serotonin transporter/SLC6A4 (SERT) cDNA was stably expressed using methods as described previously.
(§2) Cellular uptake experiments. The transporter-expressing HEK293 cells were seeded in poly-D-lysine-coated 24-well plates (1 × 10^5 cells/well) and, one day later, each well was washed with 0.5 mL uptake buffer and incubated with 0.5 mL buffer containing various concentrations of the drugs. Uptake was started by the addition of [^3H]-dopamine, [^3H]-noradrenaline, or [^3H]-serotonin at a final concentration of 1 µM (specific activity 0.14 Ci/mmol) after 5 min of preincubation. After incubation for 2.5 min (SERT-cells: 5 min) at 25 °C, it was stopped by aspirating the uptake buffer and washing each well twice with 1 mL ice-cold buffer. Nonspecific uptake was determined in the presence of 10 µM mazindol (DAT- and NET-cells) or 10 µM clomipramine (SERT-cells). The radioactivity remaining in each well was determined by incubating with 0.4 mL 1% sodium dodecyl sulphate and transferring this solution into scintillation vials containing 3 mL of scintillation cocktail (Ultima Gold MV, Packard, Dovners Grove, IL, USA). The uptake buffer consisted of (mmol/L): 4 Tris–HCl; 6.25 4-(2-hydroxyethyl)-1-piperazineethanesulfonic acid (HEPES); 120 NaCl; 5 KCl; 1.2 CaCl2; 1.2 MgSO4; 5.6 D-glucose; 0.5 ascorbic acid; pH 7.1.

[2] = biological target: T2, noradrenaline transporter/SLC6A2 (NET) (Homo sapiens, UniProt P23975); experiment: Cellular uptake experiments: [3H]-noradrenaline reuptake inhibition in transporter-expressing HEK293 cells
T2 construct: expressed in transfected cells; host or cells: HEK293
T2 sequence (P23975 whole entry): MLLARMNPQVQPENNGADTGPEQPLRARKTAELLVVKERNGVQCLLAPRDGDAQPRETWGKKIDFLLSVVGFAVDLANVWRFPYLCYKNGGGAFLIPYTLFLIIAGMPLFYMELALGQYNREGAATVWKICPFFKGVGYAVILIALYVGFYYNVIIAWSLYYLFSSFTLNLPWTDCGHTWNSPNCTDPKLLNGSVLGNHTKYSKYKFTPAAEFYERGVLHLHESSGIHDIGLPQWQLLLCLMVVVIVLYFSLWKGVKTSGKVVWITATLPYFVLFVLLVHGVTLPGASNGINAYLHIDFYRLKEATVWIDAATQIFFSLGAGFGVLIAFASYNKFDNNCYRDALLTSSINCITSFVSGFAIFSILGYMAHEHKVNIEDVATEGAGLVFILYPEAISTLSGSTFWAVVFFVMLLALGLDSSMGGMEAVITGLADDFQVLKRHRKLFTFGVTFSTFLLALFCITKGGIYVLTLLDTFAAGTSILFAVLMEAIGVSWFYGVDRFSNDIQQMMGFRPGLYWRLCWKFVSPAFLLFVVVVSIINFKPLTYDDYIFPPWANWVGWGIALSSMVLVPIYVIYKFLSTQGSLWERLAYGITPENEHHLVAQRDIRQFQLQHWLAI
Protocol: as §1, §2

[3] = biological target: T3, human serotonin transporter/SLC6A4 (SERT) (Homo sapiens, UniProt P31645); experiment: Cellular uptake experiments: [3H]-serotonin reuptake inhibition in transporter-expressing HEK293 cells
T3 construct: expressed in transfected cells; host or cells: HEK293
T3 sequence (P31645 whole entry): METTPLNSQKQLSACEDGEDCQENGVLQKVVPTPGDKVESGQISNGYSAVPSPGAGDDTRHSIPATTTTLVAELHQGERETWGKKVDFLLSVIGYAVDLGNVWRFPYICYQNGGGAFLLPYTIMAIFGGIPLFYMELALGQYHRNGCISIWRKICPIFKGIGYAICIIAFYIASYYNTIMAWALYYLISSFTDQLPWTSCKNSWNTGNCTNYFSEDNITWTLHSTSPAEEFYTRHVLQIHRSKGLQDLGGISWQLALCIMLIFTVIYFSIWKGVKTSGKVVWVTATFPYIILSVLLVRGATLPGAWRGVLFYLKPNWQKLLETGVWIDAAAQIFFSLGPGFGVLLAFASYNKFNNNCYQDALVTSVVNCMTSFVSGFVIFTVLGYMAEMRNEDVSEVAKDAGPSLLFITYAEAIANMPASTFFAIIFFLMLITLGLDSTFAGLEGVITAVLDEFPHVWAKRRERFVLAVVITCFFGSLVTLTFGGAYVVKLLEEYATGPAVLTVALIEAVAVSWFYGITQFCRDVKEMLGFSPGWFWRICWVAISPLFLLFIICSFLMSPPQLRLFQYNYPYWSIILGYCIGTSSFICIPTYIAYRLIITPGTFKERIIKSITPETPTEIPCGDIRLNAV
Protocol: as §1, §2

[4] = Reuptake Inhibition (IC50 ± SE, µM) DAT
[5] = Reuptake Inhibition (IC50 ± SE, µM) NET, cells stably expressing NET; [3H]-noradrenaline 1 µM; screening cut-off 50 µM
[6] = Reuptake Inhibition (IC50 ± SE, µM) SERT, cells stably expressing SERT; [3H]-serotonin 1 µM; screening cut-off 50 µM
[7] = read-out: Reuptake Inhibition (IC50 ± SE, µM) NET; cells stably expressing NET; [3H]-noradrenaline 1 µM; screening cut-off 50 µM
[8] = read-out: Reuptake Inhibition (IC50 ± SE, µM) SERT; cells stably expressing SERT; [3H]-serotonin 1 µM; screening cut-off 50 µM
[9] = read-out: Reuptake Inhibition (IC50 ± SE, µM) DAT
[10] = cells stably expressing NET; [3H]-noradrenaline 1 µM; screening cut-off 50 µM; read-out: Reuptake Inhibition (IC50 ± SE, µM) NET
[11] = cells stably expressing SERT; [3H]-serotonin 1 µM; screening cut-off 50 µM; read-out: Reuptake Inhibition (IC50 ± SE, µM) SERT
[12] = at 50 µM / tested concentration range

T1 sequence (Q01959 whole entry): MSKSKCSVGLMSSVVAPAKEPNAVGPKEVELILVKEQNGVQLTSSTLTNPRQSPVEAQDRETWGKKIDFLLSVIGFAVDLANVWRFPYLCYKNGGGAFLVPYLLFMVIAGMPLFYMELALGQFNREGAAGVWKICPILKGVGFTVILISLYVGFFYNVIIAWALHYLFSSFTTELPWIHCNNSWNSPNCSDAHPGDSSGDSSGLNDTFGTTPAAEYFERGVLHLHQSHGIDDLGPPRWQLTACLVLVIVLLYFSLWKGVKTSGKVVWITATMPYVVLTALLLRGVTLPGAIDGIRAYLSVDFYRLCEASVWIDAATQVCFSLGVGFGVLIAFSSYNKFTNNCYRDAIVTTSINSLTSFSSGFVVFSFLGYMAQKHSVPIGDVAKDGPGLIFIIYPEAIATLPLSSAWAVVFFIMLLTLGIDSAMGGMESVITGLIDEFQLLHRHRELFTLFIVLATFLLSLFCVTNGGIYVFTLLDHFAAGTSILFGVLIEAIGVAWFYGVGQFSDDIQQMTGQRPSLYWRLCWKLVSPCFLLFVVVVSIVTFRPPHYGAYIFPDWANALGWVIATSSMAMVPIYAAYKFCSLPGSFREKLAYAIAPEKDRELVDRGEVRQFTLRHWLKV

SMILES	IC50 [1, 4]	IC50 [2, 5]	IC50 [3, 6]	IC50 [2, 7]	IC50 [1, 9]	IC50 [2, 10]	IC50 [3, 11]	other results
[O-][S+](Cc1cccs1)C(c1ccccc1)c1cccc(C(F)(F)F)c1 (stereo not drawn) [Compound 5p, 2-(((phenyl(3-(trifluoromethyl)phenyl)methyl)sulfinyl)methyl)thiophene]	5 ± 1 µM	> 50 µM	> 50 µM					
[O-][S+](Cc1cccs1)C(c1ccccc1)c1cccc(I)c1 (stereo not drawn) [Compound 6j, 2-((((3-iodophenyl)(phenyl)methyl)sulfinyl)methyl)thiophene]	17.7 ± 2.2 µM			> 50 µM				IC50 [3, 8]: > 50 µM
[O-][S+](Cc1cccs1)C(c1ccc(F)cc1)c1ccc(Cl)cc1 (stereo not drawn) [Compound 8u, 2-((((4-chlorophenyl)(4-fluorophenyl)methyl)sulfinyl)methyl)thiophene]	5.4 ± 1 µM			> 50 µM				IC50 [3, 8]: > 50 µM
Cc1ccccc1C(c1ccccc1)[S+]([O-])Cc1cccs1 (stereo not drawn) [Compound 5l, 2-(((phenyl(o-tolyl)methyl)sulfinyl)methyl)thiophene]					15.6 ± 1 µM	> 50 µM	> 50 µM	
[O-][S+](Cc1cccs1)C(c1ccccc1)c1cccc(I)c1 (stereo not drawn) [Compound 5j, 2-((((3-iodophenyl)(phenyl)methyl)sulfinyl)methyl)thiophene]	2.09 ± 0.21 µM	> 50 µM	> 50 µM					
[O-][S@+](Cc1cccs1)[C@@H](c1ccccc1)c1ccc(Cl)cc1 [Compound 6f, (R,S)-2-((((4-chlorophenyl)(phenyl)methyl)sulfinyl)methyl)thiophene]	46 ± 1 µM	> 50 µM	> 50 µM					
COc1ccc([C@H](c2ccccc2)[S@@+]([O-])Cc2cccs2)cc1 [Compound 5t, (S,S)-2-((((4-methoxyphenyl)(phenyl)methyl)sulfinyl)methyl)thiophene]	16 ± 6 µM	> 50 µM	> 50 µM					
[O-][S@+](Cc1cccs1)[C@H](c1ccccc1)c1ccccc1Cl [Compound 5d, (R,R)-2-((((2-chlorophenyl)(phenyl)methyl)sulfinyl)methyl)thiophene]					> 50 µM	> 50 µM	> 50 µM	activity on DAT (reuptake inhibition), in words ([1]; at 50 µM): did not achieve ≥50% of radioligand displacement; activity on NET (reuptake inhibition), in words [2, 12]: did not achieve ≥50% of radioligand displacement; activity on SERT (reuptake inhibition), in words [3, 12]: did not achieve ≥50% of radioligand displacement
[O-][S+](Cc1cccs1)C(c1ccccc1)c1ccccc1C(F)(F)F (stereo not drawn) [Compound 6o, 2-(((phenyl(2-(trifluoromethyl)phenyl)methyl)sulfinyl)methyl)thiophene]	> 50 µM	> 50 µM						IC50 [3, 8]: > 50 µM
Cc1ccccc1C(c1ccccc1)[S+]([O-])Cc1cccs1 (stereo not drawn) [Compound 6l, 2-(((phenyl(o-tolyl)methyl)sulfinyl)methyl)thiophene]					> 50 µM	> 50 µM	> 50 µM	
[O-][S+](Cc1cccs1)C(c1ccc(F)cc1)c1ccc(Cl)cc1 (stereo not drawn) [Compound 7u, 2-((((4-chlorophenyl)(4-fluorophenyl)methyl)sulfinyl)methyl)thiophene]	6.4 ± 0.4 µM			> 50 µM				IC50 [3, 8]: > 50 µM
COc1cccc(C(c2ccccc2)[S+]([O-])Cc2cccs2)c1 (stereo not drawn) [Compound 6s, 2-((((3-methoxyphenyl)(phenyl)methyl)sulfinyl)methyl)thiophene]	5.41 ± 0.99 µM		35 ± 3 µM	> 50 µM				
COc1cccc(C(c2ccccc2)[S+]([O-])Cc2cccs2)c1 (stereo not drawn) [Compound 8s, 2-((((3-methoxyphenyl)(phenyl)methyl)sulfinyl)methyl)thiophene]	> 50 µM		> 50 µM	> 50 µM				
Cc1cccc([C@H](c2ccccc2)[S@@+]([O-])Cc2cccs2)c1 [Compound 7m, (S,S)-2-(((phenyl(m-tolyl)methyl)sulfinyl)methyl)thiophene]	1.2 ± 0.09 µM	49 ± 3 µM	> 50 µM					
[O-][S+](Cc1cccs1)C(c1ccccc1)c1cccc(C(F)(F)F)c1 (stereo not drawn) [Compound 6p, 2-(((phenyl(3-(trifluoromethyl)phenyl)methyl)sulfinyl)methyl)thiophene]	22 ± 1 µM		> 50 µM	> 50 µM				
[O-][S@@+](Cc1cccs1)[C@H](c1ccccc1)c1ccc(Cl)cc1 [Compound 5f, (S,R)-2-((((4-chlorophenyl)(phenyl)methyl)sulfinyl)methyl)thiophene]	12 ± 1 µM	> 50 µM	> 50 µM					
[O-][S+](Cc1cccs1)C(c1ccccc1)c1ccc(F)cc1 (stereo not drawn) [Compound 7c, 2-((((4-fluorophenyl)(phenyl)methyl)sulfinyl)methyl)thiophene]					2.1 ± 0.6 µM	> 50 µM	> 50 µM	
Cc1ccc(C(c2ccccc2)[S+]([O-])Cc2cccs2)cc1 (stereo not drawn) [Compound 5n, 2-(((phenyl(p-tolyl)methyl)sulfinyl)methyl)thiophene]		> 50 µM			3.97 ± 0.21 µM		> 50 µM	
COc1cccc(C(c2ccccc2)[S+]([O-])Cc2cccs2)c1 (stereo not drawn) [Compound 5s, 2-((((3-methoxyphenyl)(phenyl)methyl)sulfinyl)methyl)thiophene]	2.89 ± 0.47 µM	> 50 µM	> 50 µM					
[O-][S+](Cc1cccs1)C(c1ccccc1)c1cccc(I)c1 (stereo not drawn) [Compound 7j, 2-((((3-iodophenyl)(phenyl)methyl)sulfinyl)methyl)thiophene]	1.46 ± 0.06 µM			> 50 µM				IC50 [3, 8]: > 50 µM
[O-][S+](Cc1cccs1)C(c1ccccc1)c1ccc(F)cc1 (stereo not drawn) [Compound 6c, 2-((((4-fluorophenyl)(phenyl)methyl)sulfinyl)methyl)thiophene]					10.1 ± 0.3 µM	> 50 µM	> 50 µM	
[O-][S+](Cc1cccs1)C(c1ccccc1)c1ccc(F)cc1 (stereo not drawn) [Compound 5c, 2-((((4-fluorophenyl)(phenyl)methyl)sulfinyl)methyl)thiophene]					7.8 ± 0.7 µM	> 50 µM	> 50 µM	
[O-][S@@+](Cc1cccs1)[C@@H](c1ccccc1)c1ccccc1Cl [Compound 6d, (S,S)-2-((((2-chlorophenyl)(phenyl)methyl)sulfinyl)methyl)thiophene]					14.4 ± 2.4 µM	> 50 µM	> 50 µM	
[O-][S+](Cc1cccs1)C(c1ccccc1)c1ccc(C(F)(F)F)cc1 (stereo not drawn) [Compound 7q, 2-(((phenyl(4-(trifluoromethyl)phenyl)methyl)sulfinyl)methyl)thiophene]	24 ± 1 µM		> 50 µM	> 50 µM				
[O-][S@+](Cc1cccs1)[C@H](c1ccccc1)c1ccccc1F [Compound 5a, (R,R)-2-((((2-fluorophenyl)(phenyl)methyl)sulfinyl)methyl)thiophene]					32.8 ± 0.2 µM	> 50 µM	> 50 µM	
[O-][S@@+](Cc1cccs1)[C@H](c1ccccc1)c1ccccc1Cl [Compound 8d, (S,R)-2-((((2-chlorophenyl)(phenyl)methyl)sulfinyl)methyl)thiophene]					2.55 ± 0.04 µM	> 50 µM	> 50 µM	
[O-][S+](Cc1cccs1)C(c1ccccc1)c1ccc(C(F)(F)F)cc1 (stereo not drawn) [Compound 8q, 2-(((phenyl(4-(trifluoromethyl)phenyl)methyl)sulfinyl)methyl)thiophene]	21 ± 2 µM		4.7 ± 0.5 µM	> 50 µM				
[O-][S+](Cc1cccs1)C(c1ccccc1)c1cccc(F)c1 (stereo not drawn) [Compound 8b, 2-((((3-fluorophenyl)(phenyl)methyl)sulfinyl)methyl)thiophene]					9 ± 3 µM	> 50 µM	> 50 µM	
COc1ccccc1[C@@H](c1ccccc1)[S@+]([O-])Cc1cccs1 [Compound 5r, (R,R)-2-((((2-methoxyphenyl)(phenyl)methyl)sulfinyl)methyl)thiophene]	31 ± 8 µM	> 50 µM	> 50 µM					
